PMC6185959 (2018)

How the values were obtained:
[1] = tested on: Pu22 (MYC G4) (DNA, G4) TGAGGGTGGGGAGGGTGGGGAA; assay: WaterLOGSY NMR; conditions: 50 mM KCl, Tris-d11 pH 6.4, 20 °C, 5 µM oligo, 100 µM compound
[2] = tested on: Alexa Fluor 647-Pu27 (MYC G4) (DNA, G4) TGGGGAGGGTGGGGAGGGTGGGGAAGG; assay: fluorescence intensity titration; conditions: 50 mM KCl, 25 mM Tris pH 6.4, 2-3% DMSO, RT, 50 nM oligo, 2:1 model
[3] = tested on: Pu27 (MYC G4) (DNA, G4) TGGGGAGGGTGGGGAGGGTGGGGAAGG; assay: CD melting; conditions: 30 mM KCl; 10 mM Tris pH 6.3, 1% DMSO; 10 µM oligo, 40 µM compound
[4] = tested on: BCl2 (DNA, G4) AGGGGCGGGCGCGGGAGGAAGGGGGCGGGA; assay: CD melting; conditions: 30 mM KCl; 10 mM Tris pH 6.3, 1% DMSO; 10 µM oligo, 40 µM compound
[5] = tested on: 122 (DNA, G4) TGAGGGTGGGTAGGGTAGGGTAA; assay: CD melting; conditions: 30 mM KCl; 10 mM Tris pH 6.3, 1% DMSO; 10 µM oligo, 40 µM compound
[6] = tested on: MYC Pu22 G14T/G23T (NMR, 121) (DNA, G4) TGAGGGTGGGTAGGGTGGGTAA; assay: solution NMR structure; conditions: 50 mM KCl; 25 mM Tris-d11 pH 6.4, 25 °C; twofold excess compound; 5' and 3' tetrads
[7] = tested on: Alexafluor647-VEGF (DNA, G4) CGGGGCGGGCCGGGGGCGGGGT; assay: fluorescence intensity titration; conditions: 50 mM KCl; 25 mM Tris pH 6.4, 2-3% DMSO, RT; 50 nM oligo; 2:1 model
[8] = tested on: 5'-biotin Pu27 (MYC G4) (DNA, G4) TGGGGAGGGTGGGGAGGGTGGGGAAGG; assay: SPR; conditions: 30 mM KCl; 10 mM Tris pH 6.4, 3% DMSO, 0.01% Tween-20; 1:1 Langmuir, highest affinity site
[9] = tested on: 131 (DNA, G4) TGAGGGTGGGTAAGGGTGGGTAA; assay: CD melting; conditions: 30 mM KCl; 10 mM Tris pH 6.3, 1% DMSO; 10 µM oligo, 40 µM compound
[10] = tested on: no tail (DNA, G4) GGGTGGGGAGGGTGGG; assay: CD melting; conditions: 30 mM KCl; 10 mM Tris pH 6.3, 1% DMSO; 10 µM oligo, 40 µM compound
[11] = tested on: HIF1a (DNA, G4) GGGAGGGAGAGGGGGCGGG; assay: CD melting; conditions: 30 mM KCl; 10 mM Tris pH 6.3, 1% DMSO; 10 µM oligo, 40 µM compound
[12] = tested on: MYB (DNA, G4) GGAGGAGGAGGTCACGGAGGAGGAGGAGAAGGAGGAGGAGGA; assay: CD melting; conditions: 30 mM KCl; 10 mM Tris pH 6.3, 1% DMSO; 10 µM oligo, 40 µM compound
[13] = tested on: GAT Tail (A25T) (DNA, G4) TGAGGGTGGGGAGGGTGGGGAT; assay: CD melting; conditions: 30 mM KCl; 10 mM Tris pH 6.3, 1% DMSO; 10 µM oligo, 40 µM compound
[14] = tested on: Alexafluor647-BCL2 (DNA, G4) AGGGGCGGGCGCGGGAGGAAGGGGGCGGGA; assay: fluorescence intensity titration; conditions: 50 mM KCl; 25 mM Tris pH 6.4, 2-3% DMSO, RT; 50 nM oligo; 2:1 model
[15] = tested on: Alexafluor647-KRAS (DNA, G4) AGGGCGGTGTGGGAAGAGGGAAGAGGGGGAGGCAG; assay: fluorescence intensity titration; conditions: 50 mM KCl; 25 mM Tris pH 6.4, 2-3% DMSO, RT; 50 nM oligo; 2:1 model
[16] = tested on: Alexafluor647-NRAS (RNA, G4) UGUGGGAGGGGCGGGUCUGGG; assay: fluorescence intensity titration; conditions: 50 mM KCl; 25 mM Tris pH 6.4, 2-3% DMSO, RT; 50 nM oligo; 2:1 model
[17] = tested on: Alexafluor647-Telomeric DNA (DNA, G4) TTAGGGTTAGGGTTAGGGTTAGGGTTA; assay: fluorescence intensity titration; conditions: 50 mM KCl; 25 mM Tris pH 6.4, 2-3% DMSO, RT; 50 nM oligo; 2:1 model
[18] = tested on: 221 (DNA, G4) TGAGGGTAGGGTAGGGTGGGTAA; assay: CD melting; conditions: 30 mM KCl; 10 mM Tris pH 6.3, 1% DMSO; 10 µM oligo, 40 µM compound
[19] = tested on: dsDNA (DNA, duplex) CAATCGGATCGAATTCGATCCGATTG; assay: CD melting; conditions: 30 mM KCl; 10 mM Tris pH 6.3, 1% DMSO; 10 µM oligo, 40 µM compound
[20] = tested on: Pu22 (MYC G4) (DNA, G4) TGAGGGTGGGGAGGGTGGGGAA; assay: CD melting; conditions: 30 mM KCl; 10 mM Tris pH 6.3, 1% DMSO; 10 µM oligo, 40 µM compound; Table S2 prints 7.6 ± 0.5
[21] = tested on: 333 (DNA, G4) TGAGGGTTAGGGTAAGGGTTAGGGTAA; assay: CD melting; conditions: 30 mM KCl; 10 mM Tris pH 6.3, 1% DMSO; 10 µM oligo, 40 µM compound
[22] = tested on: MYC Pu22 G14T/G23T (NMR, 121) (DNA, G4) TGAGGGTGGGTAGGGTGGGTAA; assay: 1H NMR titration, imino shifts; conditions: 50 mM KCl; 25 mM Tris-d11 pH 6.4, 10% DMSO-d6, 25 °C; overall KD, non-cooperative fit

Structure (SMILES): CN[C@H](C(=O)O)C(C)C
- binding ([1]; internal non-binding control): no

Structure (SMILES): Cc1ccc(NC(=O)c2c(C)oc3ccc(O)c(CN4CCCCCC4)c23)cc1
- KD [2]: 0.0232 ± 0.0076 mM

Structure (SMILES): Cc1oc2ccc(O)c(CN3CCCCCC3)c2c1C(=O)Nc1ccc(C(F)(F)F)cc1
- ΔTm [3]: 7.5 ± 2.0 °C
- ΔTm [4]: 4.2 ± 0.4 °C
- ΔTm [5]: 7.0 ± 0.3 °C
- binding [6]: yes
- KD [7]: 0.0183 ± 0.0034 mM
- KD [8]: 1.4 ± 1.2 µM
- ΔTm [9]: 4.6 ± 0.3 °C
- ΔTm [10]: 4.3 ± 1.7 °C
- ΔTm [11]: 0.2 ± 1.1 °C
- ΔTm [12]: 1.5 ± 0.3 °C
- ΔTm [13]: 4.5 ± 0.8 °C
- KD [14]: 0.0173 ± 0.0044 mM
- KD [15]: 0.0442 ± 0.0038 mM
- binding [16]: weak
- KD [17]: 0.0403 ± 0.01 mM
- ΔTm [18]: 4.0 ± 1.0 °C
- ΔTm [19]: 0.6 ± 0.7 °C
- KD ([2]; Table S1 prints 9.1 ± 1.1): 0.0094 ± 0.0011 mM
- binding [1]: yes
- ΔTm [20]: 7.4 ± 0.5 °C
- ΔTm [21]: 0.0 ± 1.0 °C
- KD [22]: 0.0165 ± 0.0011 mM
